Source: patent US6914045B2, “Glycopeptide antibiotics” (Wyeth Holdings Corporation, priority 2001, dated 2005)
In brackets after ≈: the same amount, converted by molar mass. Values belong to the compound of their own block, whether it stands above or below them. Numbered stars: 1 amine (or outer) side, 2 acyl side, 3 side chain; on linkers, the order of the positions; unused ones are H or OH. Square brackets hold non-standard residues; d marks the D form. Peptide text beside a SMILES is read from it. * marks the point of attachment. ξ: configuration not given here. X1 = N=C1NCC(C(O)C(N[*:1])C(=O)[*:2])N1C1OC(CO)C(O)C(O)C1O; ξEnduracididine(βξ-OH,4'ξ) = N=C1NCC(C(O)C(N)C(=O)O)N1; X2 = OCC1OC(OC2C(CO)OC(*)C(O)C2O)C(O)C(O)C1O; Diphenylacetyl = O=C(C(c1ccccc1)c1ccccc1)*; ξPhe(βξ-Me) = CC(c1ccccc1)C(N)C(=O)O

Legend:
Assay in all cases: in vitro antibacterial evaluation, MIC by broth dilution
Assay type in all cases: cell-based
Enterococcus sp. = details: broth dilution, 18 hours at 35° C.
Summary of the method: (§1)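 Broth dilution per NCCLS standard M7-A2 in Muller-Hinton II […], with an inoculum of 5×10^5 CFU/mL and antibiotic spanning 64-0.06 μg/mL. The MIC is the lowest concentration that inhibits growth of the organism.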

Streptococcus sp. = details: broth dilution, 18 hours at 35° C.
Summary of the method: as §1

Staphylococcus sp. = details: broth dilution, 18 hours at 35° C.; for MIC Staphylococcus aureus (ATCC 29213): strain ATCC 29213; for MIC Staphylococcus aureus (GC 1131): strain GC 1131; for MIC Staphylococcus aureus (GC 4541): strain GC 4541; for MIC Staphylococcus aureus (GC 4542): strain GC 4542; for MIC Staphylococcus aureus (GC 4544): strain GC 4544; for MIC Staphylococcus aureus (GC 4545): strain GC 4545
Summary of the method: as §1

Escherichia coli = details: 18 hours at 35° C.
Summary of the method: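 Broth dilution in Muller-Hinton II medium per NCCLS standard M7-A2, with an inoculum of 5×10^5 CFU/mL and antibiotic tested over 64-0.06 μg/mL. MIC was taken as the lowest concentration inhibiting visible growth.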

[1] = Enterococcus faecalis (ATCC 29212)
[2] = Enterococcus faecalis (GC 2242)
[3] = Enterococcus faecalis (GC 4552)
[4] = Enterococcus faecalis (GC 4553)
[5] = Enterococcus faecalis (GC 4554)
[6] = Streptococcus agalactiae (GC 4564)
[7] = Streptococcus pneumoniae (GC 4565)
[8] = Streptococcus pyogenes (ID-3187)

MIC Enterococcus avium (GC 4558) (Enterococcus sp.; Enterococcus avium (GC 4558)): >128 µg/mL | MIC Enterococcus faecalis (ATCC 29212) (Enterococcus sp.; [1]): >128 µg/mL | MIC Enterococcus faecalis (GC 2242) (Enterococcus sp.; [2]): >128 µg/mL | MIC Enterococcus faecalis (GC 4552) (Enterococcus sp.; [3]): >128 µg/mL | MIC Enterococcus faecalis (GC 4553) (Enterococcus sp.; [4]): >128 µg/mL | MIC Enterococcus faecalis (GC 4554) (Enterococcus sp.; [5]): >128 µg/mL | MIC Enterococcus faecium (GC 2243) (Enterococcus sp.; Enterococcus faecium (GC 2243)): 128 µg/mL (≈ 85.9 µM) | MIC Enterococcus faecium (GC 4556) (Enterococcus sp.; Enterococcus faecium (GC 4556)): >128 µg/mL | MIC Enterococcus faecium (GC 4557) (Enterococcus sp.; Enterococcus faecium (GC 4557)): 32 µg/mL (≈ 21.5 µM) | MIC Enterococcus avium (GC 4558) (Enterococcus sp.): >128 µg/mL | MIC Enterococcus faecalis (ATCC 29212) (Enterococcus sp.): >128 µg/mL | MIC Enterococcus faecalis (GC 2242) (Enterococcus sp.): >128 µg/mL | MIC Enterococcus faecalis (GC 4552) (Enterococcus sp.): >128 µg/mL | MIC Enterococcus faecalis (GC 4553) (Enterococcus sp.): >128 µg/mL | MIC Enterococcus faecalis (GC 4554) (Enterococcus sp.): >128 µg/mL | MIC Enterococcus faecium (GC 2243) (Enterococcus sp.): 128 µg/mL (≈ 85.9 µM) | MIC Enterococcus faecium (GC 4556) (Enterococcus sp.): >128 µg/mL | MIC Enterococcus faecium (GC 4557) (Enterococcus sp.): 32 µg/mL (≈ 21.5 µM) | MIC Streptococcus agalactiae (GC 4564) (Streptococcus sp.; [6]): 32 µg/mL (≈ 21.5 µM) | MIC Streptococcus pneumoniae (GC 4565) (Streptococcus sp.; [7]): 16 µg/mL (≈ 10.7 µM) | MIC Streptococcus pyogenes (ID-3187) (Streptococcus sp.; [8]): 32 µg/mL (≈ 21.5 µM) | MIC Streptococcus agalactiae (GC 4564) (Streptococcus sp.): 32 µg/mL (≈ 21.5 µM) | MIC Streptococcus pneumoniae (GC 4565) (Streptococcus sp.): 16 µg/mL (≈ 10.7 µM) | MIC Streptococcus pyogenes (ID-3187) (Streptococcus sp.): 32 µg/mL (≈ 21.5 µM) | MIC Coagulase Negative Staphylococcus (GC 4547) (Staphylococcus sp.): 128 µg/mL (≈ 85.9 µM) | MIC Coagulase Negative Staphylococcus (GC 4548) (Staphylococcus sp.): >128 µg/mL | MIC Coagulase Negative Staphylococcus (GC 4549) (Staphylococcus sp.): 64 µg/mL (≈ 43 µM) | MIC Coagulase Negative Staphylococcus (GC 4551) (Staphylococcus sp.): 128 µg/mL (≈ 85.9 µM) | MIC Coagulase Negative Staphylococcus (ID-3941) (Staphylococcus sp.): 64 µg/mL (≈ 43 µM) | MIC Staphylococcus aureus-SMITH (GC 4543) (Staphylococcus sp.): >128 µg/mL | MIC Coagulase Negative Staphylococcus (GC 4547) (Staphylococcus sp.; strain GC 4547): 128 µg/mL (≈ 85.9 µM) | MIC Coagulase Negative Staphylococcus (GC 4548) (Staphylococcus sp.; strain GC 4548): >128 µg/mL | MIC Coagulase Negative Staphylococcus (GC 4549) (Staphylococcus sp.; strain GC 4549): 64 µg/mL (≈ 43 µM) | MIC Coagulase Negative Staphylococcus (GC 4551) (Staphylococcus sp.; strain GC 4551): 128 µg/mL (≈ 85.9 µM) | MIC Coagulase Negative Staphylococcus (ID-3941) (Staphylococcus sp.; strain ID-3941): 64 µg/mL (≈ 43 µM) | MIC Staphylococcus aureus-SMITH (GC 4543) (Staphylococcus sp.; strain SMITH GC 4543): >128 µg/mL | MIC Staphylococcus aureus (ATCC 29213) (Staphylococcus sp.): >128 µg/mL | MIC Staphylococcus aureus (GC 1131) (Staphylococcus sp.): >128 µg/mL | MIC Staphylococcus aureus (GC 4541) (Staphylococcus sp.): 128 µg/mL (≈ 85.9 µM) | MIC Staphylococcus aureus (GC 4542) (Staphylococcus sp.): >128 µg/mL | MIC Staphylococcus aureus (GC 4544) (Staphylococcus sp.): >128 µg/mL | MIC Staphylococcus aureus (GC 4545) (Staphylococcus sp.): >128 µg/mL | MIC Escherichia coli (ATCC 25922) (Escherichia coli): >128 µg/mL
Structure (SMILES): CC(c1ccccc1)C1NC(=O)CNC(=O)C(COC(=O)C(c2ccccc2)c2ccccc2)NC(=O)C(C(O)C2CNC(=N)N2C2OC(CO)C(O)C(O)C2O)NC(=O)C(C(O)C2CNC(=N)N2)NC(=O)C(Cc2ccc(OC3OC(CO)C(OC4OC(CO)C(O)C(O)C4O)C(O)C3O)cc2)NC1=O (stereo not drawn) [Example 96a, Cyclo[glycyl-β-methylphenylalanyl-O-(4-O-hexopyranosylhexopyranosyl)tyrosyl-3-(2-iminoimidazolidin-4-yl)seryl-3-(3-hexopyranosyl-2-iminoimidazolidin-4-yl)seryl-O-(diphenylacetyl)-seryl]] (cyclo(G[ξPhe(βξ-Me)]Y(X2)[ξEnduracididine(βξ-OH,4'ξ)][X1]S(Diphenylacetyl)); configuration not given here)
MIC Staphylococcus haemolyticus (GC 4546) (Staphylococcus sp.): 128 µg/mL (≈ 85.9 µM) | MIC Staphylococcus haemolyticus (GC 4546) (Staphylococcus sp.; strain GC 4546): 128 µg/mL (≈ 85.9 µM)

MIC Enterococcus avium (GC 4558) (Enterococcus sp.; Enterococcus avium (GC 4558)): 16 µg/mL (≈ 11.3 µM) | MIC Enterococcus faecalis (ATCC 29212) (Enterococcus sp.; [1]): 16 µg/mL (≈ 11.3 µM) | MIC Enterococcus faecalis (GC 2242) (Enterococcus sp.; [2]): 16 µg/mL (≈ 11.3 µM) | MIC Enterococcus faecalis (GC 4552) (Enterococcus sp.; [3]): 32 µg/mL (≈ 22.5 µM) | MIC Enterococcus faecalis (GC 4553) (Enterococcus sp.; [4]): 16 µg/mL (≈ 11.3 µM) | MIC Enterococcus faecalis (GC 4554) (Enterococcus sp.; [5]): 32 µg/mL (≈ 22.5 µM) | MIC Enterococcus faecium (GC 2243) (Enterococcus sp.; Enterococcus faecium (GC 2243)): 16 µg/mL (≈ 11.3 µM) | MIC Enterococcus faecium (GC 4556) (Enterococcus sp.; Enterococcus faecium (GC 4556)): 16 µg/mL (≈ 11.3 µM) | MIC Enterococcus faecium (GC 4557) (Enterococcus sp.; Enterococcus faecium (GC 4557)): 4 µg/mL (≈ 2.81 µM) | MIC Enterococcus avium (GC 4558) (Enterococcus sp.): 16 µg/mL (≈ 11.3 µM) | MIC Enterococcus faecalis (ATCC 29212) (Enterococcus sp.): 16 µg/mL (≈ 11.3 µM) | MIC Enterococcus faecalis (GC 2242) (Enterococcus sp.): 16 µg/mL (≈ 11.3 µM) | MIC Enterococcus faecalis (GC 4552) (Enterococcus sp.): 32 µg/mL (≈ 22.5 µM) | MIC Enterococcus faecalis (GC 4553) (Enterococcus sp.): 16 µg/mL (≈ 11.3 µM) | MIC Enterococcus faecalis (GC 4554) (Enterococcus sp.): 32 µg/mL (≈ 22.5 µM) | MIC Enterococcus faecium (GC 2243) (Enterococcus sp.): 16 µg/mL (≈ 11.3 µM) | MIC Enterococcus faecium (GC 4556) (Enterococcus sp.): 16 µg/mL (≈ 11.3 µM) | MIC Enterococcus faecium (GC 4557) (Enterococcus sp.): 4 µg/mL (≈ 2.81 µM) | MIC Streptococcus agalactiae (GC 4564) (Streptococcus sp.; [6]): 2 µg/mL (≈ 1.41 µM) | MIC Streptococcus pneumoniae (GC 4565) (Streptococcus sp.; [7]): <0.5 µg/mL | MIC Streptococcus pyogenes (ID-3187) (Streptococcus sp.; [8]): 1 µg/mL (≈ 0.703 µM) | MIC Streptococcus agalactiae (GC 4564) (Streptococcus sp.): 2 µg/mL (≈ 1.41 µM) | MIC Streptococcus pneumoniae (GC 4565) (Streptococcus sp.): <0.5 µg/mL | MIC Streptococcus pyogenes (ID-3187) (Streptococcus sp.): 1 µg/mL (≈ 0.703 µM) | MIC Coagulase Negative Staphylococcus (GC 4547) (Staphylococcus sp.): 4 µg/mL (≈ 2.81 µM) | MIC Coagulase Negative Staphylococcus (GC 4548) (Staphylococcus sp.): 4 µg/mL (≈ 2.81 µM) | MIC Coagulase Negative Staphylococcus (GC 4549) (Staphylococcus sp.): 2 µg/mL (≈ 1.41 µM) | MIC Coagulase Negative Staphylococcus (GC 4551) (Staphylococcus sp.): 8 µg/mL (≈ 5.63 µM) | MIC Coagulase Negative Staphylococcus (ID-3941) (Staphylococcus sp.): 2 µg/mL (≈ 1.41 µM) | MIC Staphylococcus aureus-SMITH (GC 4543) (Staphylococcus sp.): 4 µg/mL (≈ 2.81 µM) | MIC Coagulase Negative Staphylococcus (GC 4547) (Staphylococcus sp.; strain GC 4547): 4 µg/mL (≈ 2.81 µM) | MIC Coagulase Negative Staphylococcus (GC 4548) (Staphylococcus sp.; strain GC 4548): 4 µg/mL (≈ 2.81 µM) | MIC Coagulase Negative Staphylococcus (GC 4549) (Staphylococcus sp.; strain GC 4549): 2 µg/mL (≈ 1.41 µM) | MIC Coagulase Negative Staphylococcus (GC 4551) (Staphylococcus sp.; strain GC 4551): 8 µg/mL (≈ 5.63 µM) | MIC Coagulase Negative Staphylococcus (ID-3941) (Staphylococcus sp.; strain ID-3941): 2 µg/mL (≈ 1.41 µM) | MIC Staphylococcus aureus-SMITH (GC 4543) (Staphylococcus sp.; strain SMITH GC 4543): 4 µg/mL (≈ 2.81 µM) | MIC Staphylococcus aureus (ATCC 29213) (Staphylococcus sp.): 4 µg/mL (≈ 2.81 µM) | MIC Staphylococcus aureus (GC 1131) (Staphylococcus sp.): 4 µg/mL (≈ 2.81 µM) | MIC Staphylococcus aureus (GC 4541) (Staphylococcus sp.): 4 µg/mL (≈ 2.81 µM) | MIC Staphylococcus aureus (GC 4542) (Staphylococcus sp.): 4 µg/mL (≈ 2.81 µM) | MIC Staphylococcus aureus (GC 4544) (Staphylococcus sp.): 4 µg/mL (≈ 2.81 µM) | MIC Staphylococcus aureus (GC 4545) (Staphylococcus sp.): 4 µg/mL (≈ 2.81 µM) | MIC Escherichia coli (ATCC 25922) (Escherichia coli): >64 µg/mL
Structure (SMILES): CCCC(CCC)C(=O)OCC1OC(Oc2ccc(CC3NC(=O)C(C(C)c4ccccc4)NC(=O)CNC(=O)C(CO)NC(=O)C(C(O)C4CNC(=N)N4C4OC(CO)C(O)C(O)C4O)NC(=O)C(C(O)C4CNC(=N)N4)NC3=O)cc2)C(O)C(O)C1OC1OC(CO)C(O)C(O)C1O (stereo not drawn) [Example 99b, Cyclo[glycyl-β-methylphenylalanyl-O-[4-O-hexopyranosyl-6-O-(2-propylpentanoyl)hexopyranosyl]tyrosyl-3-(2-iminoimidazolidin-4-yl)seryl-3-(3-hexopyranosyl-2-iminoimidazolidin-4-yl)serylseryl]]
MIC Staphylococcus haemolyticus (GC 4546) (Staphylococcus sp.): 4 µg/mL (≈ 2.81 µM) | MIC Staphylococcus haemolyticus (GC 4546) (Staphylococcus sp.; strain GC 4546): 4 µg/mL (≈ 2.81 µM)
